{"source": "patent US20180344725A1", "about": "“QUINOLONE CHALCONE COMPOUNDS AND USES THEREOF” (priority 2015, published 2018)", "key": {"HeLa": {"tested_on": "HeLa", "experiment": "Immunofluorescent staining: centrosomes and chromosome segregation", "type": "cell-based", "conditions": "for ACS (abnormal chromosome segregation) / Monopolar centrosome: 3 μM", "method": "(§1) Cells on coverslips placed on the bottom of 35 mm tissue culture plates or 6-well clustered dishes were treated for 12-24 hours with the CTR compounds to be tested. Subsequently, the cells were fixed with 100% methanol for 15 minutes and washed with 1×PBS three times. Cells were then “blocked” with 3% BSA or 1% (v/v) FBS plus 1×PBST (1×PBS buffer containing 0.1% (v/v) Triton X-100 or 0.2% Tween 20), and incubated overnight at 4° C. with primary antibodies, with gentle agitation. Unbound primary antibodies were washed off with PBST, and a secondary antibody was added for 1 hour in the dark. Secondary antibodies were conjugated to Alexa 488 or 568. DNA was counterstained with DRAQ5 or DAPI. Subsequently, coverslips were washed three times with 1×PBST for 10 minutes each, followed by mounting them onto slides with 90% glycerol in 1×PBS. Each slide was visualized with a Carl Zeiss 510 Meta laser scanning microscope or an Axioscope. Image analysis was done with an LSM image examiner equipped with the microscopes (Carl Zeiss, Toronto, ON, Canada).\n(§2) The cancer-specific increase of mitotic cells in response to CTR-17 was correlated with the accumulation of cells with monopolar centrosomes and abnormal chromosome alignment/segregation (FIG. 11, Table 5). Cells were either sham-treated or treated with 3.0 μM CTR-17 for 12 hours or 24 hours, followed by analyses of cell cycle progression, centrosome abnormalities, and chromosome alignment/segregation. […] The mitotic index was determined by fluorescence microscopic analysis of at least 200 cells for each cell type, and data was expressed as percentage mean±S.E.M. of at least two independent experiments.\n(§3) Asynchronously growing cells were treated with 1 μM CTR-20 for 24 hours, followed by examining cells arrested in mitosis. The percentage of mitotic cells was calculated based on the examination of at least 250-400 cells. Cells treated with 1 μM CTR-20 for 24 hours on coverslips were fixed with ice-cold methanol, immunostained with an α-tubulin antibody, and then counterstained DNA with DRAQ5 prior to observing by florescent microscopy (Table 6). […] Similarly, cells treated with 1 μM CTR-20 accumulated monopolar centrosomes and defective chromosomal alignment and segregation in a cancer-specific manner."}, "MDA-MB-231 [1]": {"tested_on": "MDA-MB-231", "experiment": "Immunofluorescent staining: centrosomes and chromosome segregation", "type": "cell-based, human", "conditions": "for ACS (abnormal chromosome segregation) / Monopolar centrosome: MDA-MB-231, 3 μM", "method": "as §1, §2, §3"}, "MDA-MB-231 [2]": {"tested_on": "MDA-MB-231", "experiment": "SRB-based cytotoxicity assay", "type": "cell-based, human", "conditions": "for IC50: Homo sapiens, MDA-MB-231, SRB, Table 2; for Cell survival rate: MDA-MB231", "outline": "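Cells were seeded at 4,000-5,000 per well, allowed 16 h to attach, then exposed to serial compound dilutions in DMSO for 72 h. After fixation with 10% TCA (4 °C, 1 h) and staining with 0.4% SRB, bound dye was solubilised in 10 mM Tris pH 10.5 and read at 540 nm.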"}, "HEK293T": {"tested_on": "HEK293T", "experiment": "Immunofluorescent staining: centrosomes and chromosome segregation", "type": "cell-based", "conditions": "3 μM", "method": "as §1, §2"}, "MCF-7": {"tested_on": "MCF-7", "experiment": "Immunofluorescent staining: centrosomes and chromosome segregation", "type": "cell-based, human", "conditions": "1 μM, 24 hours", "method": "as §1\nAsynchronously growing cells were treated with 1 μM CTR-20 for 24 hours, followed by examining cells arrested in mitosis. The percentage of mitotic cells was calculated based on the examination of at least 250-400 cells. […]"}, "RPMI-8226-BR": {"tested_on": "RPMI-8226-BR", "experiment": "Antiproliferation, bortezomib-resistant cells", "type": "cell-based", "conditions": "RPMI-8226-BR (bortezomib-resistant)", "method": "For (anti)proliferation assays, 4,000-5,000 cells/well of the 96-well clustered dish were incubated for 16 hours, as described previously (Hu et al., 2008; Skehan et al., 1990). After 16 hours, culture medium was replaced with fresh medium containing different dilutions of test compounds dissolved in DMSO. Some wells were treated with 100 μl of 10% trichloroacetic acid (TCA) as a negative control and sham (medium with dimethyl sulfoxide; DMSO) treated cells were used as a positive control. After 72 hours post-incubation, medium was removed and cells were fixed with 10% TCA at 4° C. for 1 hour. […] SRB stained macromolecules were determined at a 540 nm wavelength using an automated plate reader (Synergy H4 Hybrid Multi-Mode Microplate Reader, BioTek, Winooski, Vt.). Cell growth (inhibition) was calculated by the following formula: […]\nwherein AT=absorbance of treated cells, CT=absorbance of negative control cells, and ST=absorbance of sham treated cells. IC50 values were calculated from sigmoidal dose-response curves generated by two independent biological replicates, with quadruplicate in each set by using Graph Pad Prism v.5.04 software. […] The combinational index (CI) was calculated as described previously (Chou 2006). […] CI values were determined from four independent experiments."}}}
{"smiles": "COc1ccccc1C(=O)/C=C/c1cc2ccccc2[nH]c1=O", "note": "[CTR-17, (E)-3-(3-(2-Methoxyphenyl)-3-oxoprop-1-enyl)quinolin-2(1H)-one]", "values": [{"measurement": "ACS (abnormal chromosome segregation)", "setting": "HeLa; 12 h post-treatment", "result": "20.0 ± 4.5% of total mitotic cells"}, {"measurement": "Monopolar centrosome", "setting": "HeLa; 12 h post-treatment", "result": "80.0 ± 4.5% of total mitotic cells"}, {"measurement": "ACS (abnormal chromosome segregation)", "setting": "HeLa; 24 h post-treatment", "result": "0.0 ± 0.0% of total mitotic cells"}, {"measurement": "Monopolar centrosome", "setting": "HeLa; 24 h post-treatment", "result": "100.0 ± 0.0% of total mitotic cells"}, {"measurement": "ACS (abnormal chromosome segregation)", "setting": "MDA-MB-231 [1]; 12 h post-treatment", "result": "60.0 ± 10.2% of total mitotic cells"}, {"measurement": "Monopolar centrosome", "setting": "MDA-MB-231 [1]; 12 h post-treatment", "result": "40.0 ± 10.2% of total mitotic cells"}, {"measurement": "ACS (abnormal chromosome segregation)", "setting": "MDA-MB-231 [1]; 24 h post-treatment", "result": "55.1 ± 5.7% of total mitotic cells"}, {"measurement": "Monopolar centrosome", "setting": "MDA-MB-231 [1]; 24 h post-treatment", "result": "44.9 ± 5.7% of total mitotic cells"}, {"measurement": "IC50", "setting": "MDA-MB-231 [2]", "result": "410 ± 20", "unit": "nM"}, {"measurement": "ACS (abnormal chromosome segregation)", "setting": "HEK293T; 12 h post-treatment", "result": "48.2 ± 10.1% of total mitotic cells"}, {"measurement": "Monopolar centrosome", "setting": "HEK293T; 12 h post-treatment", "result": "50.5 ± 10.1% of total mitotic cells"}, {"measurement": "ACS (abnormal chromosome segregation)", "setting": "HEK293T; 24 h post-treatment", "result": "0.1 ± 0.0% of total mitotic cells"}, {"measurement": "Monopolar centrosome", "setting": "HEK293T; 24 h post-treatment", "result": "93.2 ± 3.4% of total mitotic cells"}]}
{"smiles": "COc1ccc2[nH]c(=O)c(/C=C/C(=O)c3ccccc3OC)cc2c1", "note": "[CTR-20, (E)-6-Methoxy-3-(3-(2-methoxyphenyl)-3-oxoprop-1-enyl) quinolin-2(1H)-one]", "values": [{"measurement": "ACA/S (%) (abnormal chromosome alignment and segregation)", "setting": "HeLa; 1 μM, 24 hours", "result": "34.97 ± 1.96", "unit": "%"}, {"measurement": "Monopolar (%)", "setting": "HeLa; 1 μM, 24 hours", "result": "48.13 ± 3.34", "unit": "%"}, {"measurement": "ACA/S (%) (abnormal chromosome alignment and segregation)", "setting": "MCF-7", "result": "29.01 ± 2.50", "unit": "%"}, {"measurement": "Monopolar (%)", "setting": "MCF-7", "result": "62.41 ± 2.99", "unit": "%"}, {"measurement": "ACA/S (%) (abnormal chromosome alignment and segregation)", "setting": "MDA-MB-231 [1]; MB231, 1 μM, 24 hours", "result": "58.05 ± 6.21", "unit": "%"}, {"measurement": "Monopolar (%)", "setting": "MDA-MB-231 [1]; MB231, 1 μM, 24 hours", "result": "35.73 ± 5.59", "unit": "%"}, {"measurement": "IC50", "setting": "RPMI-8226-BR", "result": "280 ± 30", "unit": "nM"}, {"measurement": "IC50", "setting": "MDA-MB-231 [2]", "result": "120 ± 90", "unit": "nM"}, {"measurement": "Cell survival rate", "setting": "MDA-MB-231 [2]; single agent 0.1 μM", "result": "70.86 ± 4.17"}, {"measurement": "Cell survival rate", "setting": "MDA-MB-231 [2]; single agent 0.2 μM", "result": "41.07 ± 4.58"}, {"measurement": "Cell survival rate", "setting": "MDA-MB-231 [2]; single agent 0.4 μM", "result": "26.38 ± 4.73"}]}
